The term EC50 denotes the concentration that produces a half-maximal response.

Results on 25 compounds are retold here after patent publication US10000512B2, “Compounds for the treatment of infectious diseases” (Hoffmann-La Roche Inc., priority 2014, dated 2018).

The target in one test is T1, human TLR7 (Homo sapiens, UniProt Q9NYK1).
T1 sequence (Q9NYK1 27-1049): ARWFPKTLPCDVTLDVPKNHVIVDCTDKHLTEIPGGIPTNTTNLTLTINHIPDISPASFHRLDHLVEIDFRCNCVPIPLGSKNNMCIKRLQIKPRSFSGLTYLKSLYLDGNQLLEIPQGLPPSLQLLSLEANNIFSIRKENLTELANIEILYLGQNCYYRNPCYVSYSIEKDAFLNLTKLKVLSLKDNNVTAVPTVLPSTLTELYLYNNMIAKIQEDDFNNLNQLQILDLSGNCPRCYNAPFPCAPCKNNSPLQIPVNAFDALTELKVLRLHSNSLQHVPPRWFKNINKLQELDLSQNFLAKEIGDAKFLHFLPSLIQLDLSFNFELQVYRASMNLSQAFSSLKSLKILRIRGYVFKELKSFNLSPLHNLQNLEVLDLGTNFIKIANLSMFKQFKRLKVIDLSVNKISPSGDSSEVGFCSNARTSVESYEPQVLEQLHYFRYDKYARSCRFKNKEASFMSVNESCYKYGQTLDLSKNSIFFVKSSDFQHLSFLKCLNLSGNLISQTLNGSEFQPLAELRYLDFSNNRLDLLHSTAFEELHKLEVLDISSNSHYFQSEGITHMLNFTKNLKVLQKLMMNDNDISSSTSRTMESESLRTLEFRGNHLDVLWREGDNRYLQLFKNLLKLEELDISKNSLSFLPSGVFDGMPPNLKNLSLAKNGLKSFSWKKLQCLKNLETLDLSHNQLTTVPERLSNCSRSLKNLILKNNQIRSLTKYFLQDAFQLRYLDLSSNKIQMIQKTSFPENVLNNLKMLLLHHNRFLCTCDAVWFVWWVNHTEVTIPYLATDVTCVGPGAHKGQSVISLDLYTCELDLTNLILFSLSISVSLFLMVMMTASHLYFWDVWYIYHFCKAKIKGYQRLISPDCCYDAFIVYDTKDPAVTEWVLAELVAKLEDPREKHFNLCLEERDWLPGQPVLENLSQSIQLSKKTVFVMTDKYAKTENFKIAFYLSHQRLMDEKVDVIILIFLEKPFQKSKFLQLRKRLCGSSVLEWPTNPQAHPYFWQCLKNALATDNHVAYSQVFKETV
The test can be described thus: HEK293-Blue-hTLR-7 cells assay (SEAP reporter). The class given is cell-based. As to conditions: 20 hours incubation. The text has this:
A stable HEK293-Blue-hTLR-7 cell line was purchased from InvivoGen (Cat.#: hkb-ht1r7, San Diego, Calif., USA). These cells were designed for studying the stimulation of human TLR7 by monitoring the activation of NF-κB. A SEAP (secreted embryonic alkaline phosphatase) reporter gene was placed under the control of the IFN-β minimal promoter fused to five NF-κB and AP-1-binding sites. The SEAP was induced by activating NF-κB and AP-1 via stimulating HEK-Blue hTLR7 cells with TLR7 ligands. Therefore the reporter expression was regulated by the NF-κB promoter upon stimulation of human TLR7 for 20 hours. The cell culture supernatant SEAP reporter activity was determined using QUANTI-Blue™ kit (Cat.#: rep-qb1, Invivogen, San Diego, Calif., USA) at a wavelength of 640 nm, a detection medium that turns purple/blue in the presence of alkaline phosphatase.
HEK293-Blue-hTLR7 cells were incubated at a density of 250,000˜450,000 cells/mL in a volume of 180 μL in a 96-well plate in Dulbecco's Modified Eagle's medium (DMEM) containing 4.5 g/L glucose, 50 U/mL penicillin, […] streptomycin, […] Normocin, 2 mM L-glutamine, 10% (v/v) heat-inactivated fetal bovine serum for 24 h. Then the HEK293-Blue-hTLR-7 cells were incubated with addition of 20 μL test compound in a serial dilution in the presence of final DMSO at 1% and perform incubation under 37° C. in a CO2 incubator for 20 hours. Then 20 μL of the supernatant from each well was incubated with 180 μL Quanti-blue substrate solution at 37° C. for 2 h and the absorbance was read at 620˜655 nm using a spectrophotometer. The signalling pathway that TLR7 activation leads to downstream NF-κB activation has been widely accepted, and therefore similar reporter assay was also widely used for evaluating TLR7 agonist (Tsuneyasu Kaisho and Takashi Tanaka, Trends in Immunology, Volume 29, Issue 7, July 2008, […]; Hiroaki Hemmi et al, Nature Immunology 3, 196-200 (2002).

For another test, the system named is AAV-HBV. Kind of test: In vivo antiviral efficacy in AAV-HBV mouse model. As to conditions: mouse serum. Set-up: species or system C57BL/6 mice. How it is done: Example 6-A was evaluated for its in vivo antiviral efficacy using an AAV-HBV mouse model. This mouse model for HBV infection was generated by injecting C57BL/6 mice with a recombinant adeno-associated virus (AAV) carrying a replicable HBV (hepatitis B virus) genome (AAV-HBV). In 3 weeks post infection, high levels of HBV viral markers, such as HBV genomic DNA and HBsAg (HBV surface antigen), was detected in the sera of infected mice. With persistent HBV viremia and fully competent immune system, the AAV-HBV model is suitable for investigating the in vivo efficacy of Example 6-A.
To establish the AAV-HBV model, a total of fifteen 4-week old male C57BL/6 mice, specific pathogen free, were purchased from Shanghai Laboratory Animal Center of Chinese Academy of Sciences (SLAC) and housed in an animal care facility in individually ventilated cages under controlled temperature and light conditions following the Institutional Animal Care guidelines. AAV-HBV virus stock was available from Beijing FivePlus Molecular Medicine Institute (Beijing, China). C57BL/6 mice were injected with 200 μL of recombinant virus in saline buffer through tail vein injection. The mice were bled on day 14 post injection to monitor HBsAg, HBeAg, and HBV genomic DNA in serum. On day 29 post injection, the fifteen mice were randomly recruited into 3 groups based on their HBV biomarker levels, and started to receive treatments, as shown in Table 3.
Mice in group 1 were treated with vehicle placebo (2% Klucel LF, 0.1% Polysorbate 80, and 0.1% Parabens in water); mice in group 2 and 3 were treated with Example 6-A at 30 mg/kg and 100 mg/kg respectively, every other day (QOD). All the mice were orally dosed for a total of 6 weeks. Serum samples were collected twice a week to monitor HBV biomarkers. Serum HBsAg was measured using CLIA kits (Autobio Diagnostics Co., Ltd, Zhengzhou, China) according to the manufacturer's instructions. The lower limit of detection for HBsAg was 0.1 ng/mL. Serum dilution of 500-fold (for HBsAg) was used to obtain values within the linear range of the standard curve. Serum HBV DNA was extracted using a MagNA Pure 96 DNA and Viral NA Small Volume Kit (Roche) following the manufacturer's instructions. The DNA samples were analyzed by real-time quantitative PCR (qPCR) using a HBV-specific primer and probe set for specific amplification and detection of a 128 bp HBV genome region from the nucleotide 2969 to 3096.

Setting [1] is: 30 mg/kg PO QOD, after the 6-week treatment.
Setting [2] is: 100 mg/kg PO QOD, at the end of the treatment (6 weeks).

Each structure is given as a SMILES string.

At human TLR7, `CC(O)[C@H]1O[C@@H](n2c(=O)sc3c(=O)[nH]c(N)nc32)CS1` (single isomer, unassigned) [Example 16-A] returned a concentration giving a half-maximal response (EC50) of 46.5 µM.
The compound `Nc1nc2c(sc(=O)n2[C@H]2CS[C@@H](C(O)c3cccs3)O2)c(=O)[nH]1` (single isomer, unassigned) [Example 20-A] came in with an EC50 on human TLR7 of 33.9 µM. This EC50 and that of the compound before are within 1.5-fold of each other.
Turning to `CC(=O)OC(C1CC1)[C@H]1O[C@@H](n2c(=O)sc3cnc(N)nc32)CS1` (single isomer, unassigned) [Example 6-A], in the test with AAV-HBV (setting [1]), the “reduction in HBV DNA” value is given as “more than 2 log” and the “reduction in HBsAg” value came out at 0.8 log. For the same compound, in the test with AAV-HBV (setting [2]), the “reduction in HBV DNA” value was “more than 3 log” and the “reduction in HBsAg” value came out at 2.4 log.
In turn, `C=CCC1SC(CO)OC1n1c(=O)sc2c(=O)[nH]c(N)nc21` (single isomer, unassigned) [Example 25-A, 3-[4-Allyl-2-(hydroxymethyl)-1,3-oxathiolan-5-yl]-5-amino-6H-thiazolo[4,5-d]pyrimidine-2,7-dione] showed an EC50 on human TLR7 of 178 µM.
`Nc1nc2c(sc(=O)n2C2CSC(CO)O2)c(=O)[nH]1` (stereo not shown) [Example 1, 5-Amino-3-[2-(hydroxymethyl)-1,3-oxathiolan-5-yl]-6H-thiazolo[4,5-d] pyrimidine-2,7-dione]: the EC50 on human TLR7 stood at 97 µM.
The compound `C#CC(O)[C@H]1O[C@@H](n2c(=O)sc3c(=O)[nH]c(N)nc32)CS1` (single isomer, unassigned) [Example 15-A] gave an EC50 at human TLR7 of 16.7 µM.
Still for that read-out and setting: as for `CC#CC(OC(C)=O)[C@H]1O[C@@H](n2c(=O)sc3c(=O)[nH]c(N)nc32)CS1` (single isomer, unassigned) [Example 13-A], the figure is 151 µM.
At human TLR7, `CC(=O)OC(C1CC1)[C@H]1O[C@@H](n2c(=O)sc3c(=O)[nH]c(N)nc32)CS1` (single isomer, unassigned) [Example 7-A] showed an EC50 of 61.7 µM.
For `CC(C)CC(O)[C@H]1O[C@@H](n2c(=O)sc3c(=O)[nH]c(N)nc32)CS1` (single isomer, unassigned) [Example 17-B], the EC50 on human TLR7 was 93.6 µM.
`Nc1nc2c(sc(=O)n2[C@H]2CS[C@@H](C(O)C#CC3CC3)O2)c(=O)[nH]1` (single isomer, unassigned) [Example 14-A] registered an EC50 at human TLR7 of 54.3 µM.
The compound `CCCCC(O)[C@H]1O[C@@H](n2c(=O)sc3c(=O)[nH]c(N)nc32)CS1` (single isomer, unassigned) [Example 19-A] had an EC50 on human TLR7 of 32.9 µM.
Still for that read-out and setting: as for `CC#CC(O)[C@H]1O[C@@H](n2c(=O)sc3c(=O)[nH]c(N)nc32)CS1` (single isomer, unassigned) [Example 10-B], the figure is 122 µM.
As to `CCCC(O)[C@H]1O[C@@H](n2c(=O)sc3c(=O)[nH]c(N)nc32)CS1` (single isomer, unassigned) [Example 9-B], on human TLR7, the EC50 came to 160 µM.
Still for that read-out and setting: as for `C[C@@H]1S[C@@H](CO)OC1n1c(=O)sc2c(=O)[nH]c(N)nc21` (single isomer, unassigned) [Example 21-A], the figure is 53.9 µM; as for `CC#CC(O)C1OC(n2c(=O)sc3c(=O)[nH]c(N)nc32)[C@H](C)S1` (single isomer, unassigned) [Example 24-A], 10.1 µM; as for `CC(C)CC(O)[C@H]1O[C@@H](n2c(=O)sc3c(=O)[nH]c(N)nc32)CS1` (single isomer, unassigned) [Example 17-A], 63.3 µM.
For the compound `C[C@@H]1S[C@@H](C(O)C2CC2)OC1n1c(=O)sc2c(=O)[nH]c(N)nc21` (single isomer, unassigned) [Example 23-A], the EC50 on human TLR7 was found to be 4.5 µM.
Still for that read-out and setting: the figure for `CC[C@H](O)C1OC(n2c(=O)sc3c(=O)[nH]c(N)nc32)[C@H](C)S1` (single isomer, unassigned) [Example 22-A] is 4.7 µM.
On the same count and under the same terms, the figure for `CCC(O)[C@H]1O[C@@H](n2c(=O)sc3c(=O)[nH]c(N)nc32)CS1` (single isomer, unassigned) [Example 8-A] is 16.5 µM; for `Nc1nc2c(sc(=O)n2[C@H]2CS[C@@H](C(O)C3CC3)O2)c(=O)[nH]1` (single isomer, unassigned) [Example 4-B] it is 306 µM; for `CCCC(O)[C@H]1O[C@@H](n2c(=O)sc3c(=O)[nH]c(N)nc32)CS1` (single isomer, unassigned) [Example 9-A] it is 10 µM.
For `CC#CC(O)[C@H]1O[C@@H](n2c(=O)sc3c(=O)[nH]c(N)nc32)CS1` (single isomer, unassigned) [Example 10-A], a half-maximal response at human TLR7 (EC50) required 7.6 µM.
At human TLR7, `C[C@@H]1S[C@@H](C(O)C2CC2)OC1n1c(=O)sc2c(=O)[nH]c(N)nc21` (single isomer, unassigned) [Example 23-B] displayed an EC50 of 31.5 µM.
For the compound `C=CCC(O)[C@H]1O[C@@H](n2c(=O)sc3c(=O)[nH]c(N)nc32)CS1` (single isomer, unassigned) [Example 18-A], the EC50 on human TLR7 came to 29 µM.
For `Nc1nc2c(sc(=O)n2[C@H]2CS[C@@H](CO)O2)c(=O)[nH]1` [Example 2-A, 5-amino-3-[(2S,5R)-2-(hydroxymethyl)-1,3-oxathiolan-5-yl]-6H-thiazolo[4,5-d]pyrimidine-2,7-dione], at human TLR7, a half-maximal effect (EC50) was put at 125 µM.
